# Test results as given in patent US20240360144A1, “PYRAZOLOPYRIMIDINE ESTER COMPOUND” (Shanghai Maius Pharmaceutical Co. Ltd., priority 2021, published 2024).
# Read-outs that look alike come from different tables or passages of the source.
# Experiment: Pharmacokinetic assays of compounds after oral gavage administration to rats
# Assay type: in vivo, male SD rats
# Set-up: AUMC(0-t) / AUMC(0-∞): unit not given here
# Conditions: for AUC as percentage of that of 4-AAM administered at the same molar amount: relative to 4-AAM directly administered
# Protocol: Example 13: Pharmacokinetic Assays of Compounds
# Instruments: ultra high performance liquid chromatography (Acquity UPLC, Waters) system; triple quadrupole mass spectrometer (Qtrap 5500, Sciex); high-speed refrigerated centrifuge (5430R, Eppendorf).
# Chromatography Conditions: Column: Waters BEH C18 2.1×50 mm ([…]); Column Temperature: 45° C.; Mobile Phase: 0.1% aqueous solution of formic acid (A)/acetonitrile; Gradient: see Table 2 below: […]
# Mass Spectrometry Condition: Mode: positive ion multiple reaction monitoring (MRM); Curtain Gas: 45 psi; Gas 1: 45 psi; Gas 2: 45 psi; Ion Source Temperature: 500° C.; Ion Source Voltage: 5000 V.
# Experimental Animals: male SD rats, weighing 200-240 grams, fasting overnight before experiments.
# Each suspension is prepared before administration.
# Each sample was placed in an ice bath, centrifuged for plasma collection, frozen and stored.
# Plasma Drug Concentration Data and Calculation of Pharmacokinetic Parameters:
# Plasma drug concentration data was processed using MultiQuan 3.0 (Sciex), and pharmacokinetic parameters were calculated using the DAS 2.0 software. Plasma drug concentrations were measured in ug/L.
# [1] = male SD rats, oral gavage, 30.0 mg/kg, suspension in 0.5% CMC-Na, plasma
SMILES,AUC(0-t) [1],AUC(0-∞) [1],AUMC(0-t) [1],AUMC(0-∞) [1],CLz/F [1],Cmax [1],MRT(0-t) [1],MRT(0-∞) [1],Tmax [1],VRT(0-t) [1],VRT(0-∞) [1],t½z [1],"mean retention time (rats, oral gavage)","time to peak concentration (rats, oral gavage)","AUC compared with 4-AAM administered at the same molar amount (rats, oral gavage, in words)","AUC as percentage of that of 4-AAM administered at the same molar amount (rats, oral gavage)",further results
C=CC(=O)N1CCC[C@@H](n2nc(-c3ccc(Oc4ccccc4)cc3)c3c(NC(=O)OC(C)C)ncnc32)C1 [Compound 1],1038.6 ng·h/mL,1059.6 ng·h/mL,2950.4,3200.9,472 mL/min/kg,257.2 ng/mL,2.8 h,3.0 h,1.0 h,4.6 h^2,6.3 h^2,1.7 h,2.8 h,1 h,much greater AUC,–,–
C=CC(=O)N1CCC[C@@H](n2nc(-c3ccc(Oc4ccccc4)cc3)c3c(NC(=O)OCCC)ncnc32)C1 [Compound 2],663.0 ng·h/mL,706.3 ng·h/mL,2844.3,3495.04,708 mL/min/kg,111.0 ng/mL,4.29 h,4.9 h,2.0 h,7.2 h^2,13.5 h^2,2.338 h,4.3 h,2 h,–,88%,–
C=CC(=O)N1CCC[C@@H](n2nc(-c3ccc(Oc4ccccc4)cc3)c3c(NC(=O)OCCCC)ncnc32)C1 [Compound 3],1366.7 ng·h/mL,1375.6 ng·h/mL,3939.9,4052.0,363 mL/min/kg,304.4 ng/mL,2.9 h,2.9 h,2.0 h,3.3 h^2,3.8 h^2,1.3 h,2.9 h,2 h,much greater AUC,180%,"hydrolysis in the blood plasma into the 4-amino active metabolite (4-AAM) (rats, after oral absorption, in words): highest rate"
"C=CC(=O)N1CCC[C@@H](n2nc(-c3ccc(Oc4ccccc4)cc3)c3c(N)ncnc32)C1 [Compound 4-AAM, 1-[(3R)-3-[4-amino-3-(4-phenoxyphenyl)-1H-pyrazolo[3,4-D]pyrimidin-1-yl]-1-piperidinyl]-2-propen-1-one, reference compound]",–,–,1316.6,2805.6,–,–,–,–,–,2.0 h^2,47.6 h^2,8.9 h,–,–,–,–,"AUC(0-inf) (rat, male SD rats, oral gavage, 30.0 mg/kg, suspension in 0.5% CMC-Na, plasma): 822 ng·h/mL; AUC(0-t) (rat, male SD rats, oral gavage, 30.0 mg/kg, suspension in 0.5% CMC-Na, plasma, read-out: AUC(0-t)): 758 ng·h/mL; Cmax (rat, male SD rats, oral gavage, 30.0 mg/kg, suspension in 0.5% CMC-Na, plasma, read-out: Cmax): 312 ng/mL; MRT last (rat, male SD rats, oral gavage, 30.0 mg/kg, suspension in 0.5% CMC-Na, plasma, read-out: MRT(0-t)): 1.7 h; MRT inf (rat, male SD rats, oral gavage, 30.0 mg/kg, suspension in 0.5% CMC-Na, plasma, read-out: MRT(0-∞)): 3.4 h"
C=CC(=O)N1CCC[C@@H](n2nc(-c3ccc(Oc4ccccc4)cc3)c3c(NC(=O)OCC(C)C)ncnc32)C1 [Compound 4],964.1 ng·h/mL,976.4 ng·h/mL,2405.5,2586.7,512 mL/min/kg,256.7 ng/mL,2.5 h,2.6 h,2.0 h,2.9 h^2,4.8 h^2,2.5 h,2.5 h,2 h,much greater AUC,127%,–
C=CC(=O)N1CCC[C@@H](n2nc(-c3ccc(Oc4ccccc4)cc3)c3c(NC(=O)OCCCCCC)ncnc32)C1 [Compound 5],584.0 ng·h/mL,587.1 ng·h/mL,1659.5,1696.7,852 mL/min/kg,143.9 ng/mL,2.8 h,2.9 h,2.0 h,3.0 h^2,3.5 h^2,1.3 h,–,–,–,–,–
